According to the NIST ThermoML archive (doi:10.1016/j.jct.2015.09.022):

How the values were obtained:
[1] = 100.7 kPa, Liquid; for viscosity: Falling or rolling sphere viscometry; for speed of sound: Frequency=3 MHz, Sing-around technique in a fixed-path interferometer; for mass density: Vibrating tube method
[2] = xn = mol fraction of the nth substance listed; settings: 100.7 kPa, Liquid; for viscosity: Falling or rolling sphere viscometry; for speed of sound: Frequency=3 MHz, Sing-around technique in a fixed-path interferometer; for mass density: Vibrating tube method

CCCC[n+]1ccn(C)c1.O=S(=O)([N-]S(=O)(=O)C(F)(F)F)C(F)(F)F
[1]
Settings	mass density [kg/m3]	speed of sound [m/s]	viscosity [mPa·s]
298.15 K	1436.82	1227.8	50.04
303.15 K	1431.98	1217.5	40.72
308.15 K	1427.16	1205.2	33.73
313.15 K	1422.37	1194.4	28.28
318.15 K	1417.6	1184.5	24.01
323.15 K	1412.86	1171.3	20.32

CCCC[n+]1ccn(C)c1.O=S(=O)([N-]S(=O)(=O)C(F)(F)F)C(F)(F)F + CCCC=O
[2], x1 = 1
Settings	mass density [kg/m3]	speed of sound [m/s]	viscosity [mPa·s]
298.15 K	1436.82	1227.8	50.04
303.15 K	1431.98	1217.5	40.72
308.15 K	1427.16	1205.2	33.73
313.15 K	1422.37	1194.4	28.28
318.15 K	1417.6	1184.5	24.01
323.15 K	1412.86	1171.3	20.32

CCCC[n+]1ccn(C)c1.O=S(=O)([N-]S(=O)(=O)C(F)(F)F)C(F)(F)F + CCCCN
[2], x1 = 1
Settings	mass density [kg/m3]	speed of sound [m/s]	viscosity [mPa·s]
298.15 K	1436.82	1227.8	50.04
303.15 K	1431.98	1217.5	40.72
308.15 K	1427.16	1205.2	33.73
313.15 K	1422.37	1194.4	28.28
318.15 K	1417.6	1184.5	24.01
323.15 K	1412.86	1171.3	20.32

CCCCN [1-butanamine]
[1]
Settings	mass density [kg/m3]	speed of sound [m/s]	viscosity [mPa·s]
298.15 K	733.33	1246.5	0.47
303.15 K	728.5	1223.9	0.44
308.15 K	723.67	1201.3	0.41
313.15 K	718.66	1178.7	0.39
318.15 K	714.1	1156.2	0.37
323.15 K	709.21	1133.5	0.35

CCCC=O [butanal]
[1]
Settings	mass density [kg/m3]	speed of sound [m/s]	viscosity [mPa·s]
298.15 K	796.99	1193.8	0.43
303.15 K	791.8	1172.7	0.4
308.15 K	786.41	1151.6	0.39
313.15 K	781.37	1130.6	0.36
318.15 K	776.39	1109.6	0.35
323.15 K	771.3	1088.8	0.32

CCCCOC(C)=O [butyl ethanoate]
[1]
Settings	viscosity [mPa·s]
298.15 K	0.67
303.15 K	0.64
308.15 K	0.58
313.15 K	0.57
318.15 K	0.53
323.15 K	0.5

CCCCOC(C)=O [butyl ethanoate] + CCCC[n+]1ccn(C)c1.O=S(=O)([N-]S(=O)(=O)C(F)(F)F)C(F)(F)F
[2], x2 = 0
Settings	mass density [kg/m3]	speed of sound [m/s]	viscosity [mPa·s]
298.15 K	876	1190.5	0.67
303.15 K	870.86	1169.8	0.64
308.15 K	865.69	1149.2	0.58
313.15 K	860.49	1128.8	0.57
318.15 K	855.28	1108.5	0.53
323.15 K	850.03	1088.3	0.5
